Assay results published in paper PMC9964459, “Nornidulin, A New Inhibitor of Plasmodium falciparum Malate: Quinone Oxidoreductase (PfMQO) from Indonesian Aspergillus sp. BioMCC f.T.8501” (Pharmaceuticals, 2023).

Molecular target: T1, Plasmodium falciparum malate:quinone oxidoreductase (PfMQO) (Plasmodium falciparum, UniProt C6KT09)
T1 construct: gene PF3D7_0616800; PfMQO-membrane fraction from PfMQO-expressing recombinant Escherichia coli
T1 sequence (C6KT09 1-521): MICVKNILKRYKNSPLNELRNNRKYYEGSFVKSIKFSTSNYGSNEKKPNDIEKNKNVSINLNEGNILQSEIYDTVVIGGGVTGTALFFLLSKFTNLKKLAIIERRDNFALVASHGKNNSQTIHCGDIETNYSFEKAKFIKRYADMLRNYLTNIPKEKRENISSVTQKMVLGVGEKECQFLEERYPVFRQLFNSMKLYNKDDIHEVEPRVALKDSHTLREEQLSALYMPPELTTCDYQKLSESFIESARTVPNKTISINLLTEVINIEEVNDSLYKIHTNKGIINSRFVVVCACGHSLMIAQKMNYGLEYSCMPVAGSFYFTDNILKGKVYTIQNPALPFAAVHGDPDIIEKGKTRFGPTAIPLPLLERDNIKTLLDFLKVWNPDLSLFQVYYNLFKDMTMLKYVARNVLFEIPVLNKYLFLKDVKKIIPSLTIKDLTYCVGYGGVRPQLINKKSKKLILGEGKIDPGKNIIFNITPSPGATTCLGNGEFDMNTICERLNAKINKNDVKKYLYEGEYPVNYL
Test: DCIP-reduction enzyme assay (A600, malate/decylubiquinone) with recombinant PfMQO membrane fraction
Type: biochemical

IC50: 51 µM
Structure (SMILES): C/C=C(\C)c1c(Cl)c(O)c(C)c2c1Oc1c(Cl)c(O)c(Cl)c(C)c1C(=O)O2 [Fr10, nornidulin]
